# Experimental data taken from ChEMBL document CHEMBL5226282, “TLR2 Agonistic Small Molecules: Detailed Structure-Activity Relationship, Applications, and Future Prospects” (J Med Chem, 2021).
# How the values were obtained:
# [1] = biological target: Toll-like receptor 1/2 (Homo sapiens, UniProt O60603+Q15399); assay: Agonist activity at TLR2/TLR1 in human THP-1 cells; format: cell-based
# [2] = biological target: Toll-like receptor 1/2 (Mus musculus); assay: Agonist activity at TLR2/TLR1 in mouse Macrophage cell line
# Sequence of Toll-like receptor 1/2 (O60603 whole entry): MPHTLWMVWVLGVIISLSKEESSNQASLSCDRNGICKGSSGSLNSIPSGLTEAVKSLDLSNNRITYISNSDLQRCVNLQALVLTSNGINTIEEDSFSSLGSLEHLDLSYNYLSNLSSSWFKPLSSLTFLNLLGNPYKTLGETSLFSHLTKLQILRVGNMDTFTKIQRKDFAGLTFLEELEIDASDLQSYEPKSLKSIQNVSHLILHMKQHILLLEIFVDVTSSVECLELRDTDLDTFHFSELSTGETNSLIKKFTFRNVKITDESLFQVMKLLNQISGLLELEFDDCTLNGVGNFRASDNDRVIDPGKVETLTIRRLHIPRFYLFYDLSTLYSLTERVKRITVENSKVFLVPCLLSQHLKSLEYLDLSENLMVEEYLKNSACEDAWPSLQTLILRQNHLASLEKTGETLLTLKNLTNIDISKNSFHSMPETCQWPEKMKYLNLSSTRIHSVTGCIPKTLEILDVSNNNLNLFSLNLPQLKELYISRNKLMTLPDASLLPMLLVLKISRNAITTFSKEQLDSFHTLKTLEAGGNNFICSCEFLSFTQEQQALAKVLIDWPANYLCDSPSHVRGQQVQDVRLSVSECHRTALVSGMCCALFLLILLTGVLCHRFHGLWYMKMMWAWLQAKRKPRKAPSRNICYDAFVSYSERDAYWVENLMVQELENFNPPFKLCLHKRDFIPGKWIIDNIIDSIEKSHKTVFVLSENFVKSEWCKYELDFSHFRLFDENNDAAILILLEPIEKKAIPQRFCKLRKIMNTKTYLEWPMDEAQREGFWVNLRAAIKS
# Sequence of Toll-like receptor 1/2 (Q15399 whole entry): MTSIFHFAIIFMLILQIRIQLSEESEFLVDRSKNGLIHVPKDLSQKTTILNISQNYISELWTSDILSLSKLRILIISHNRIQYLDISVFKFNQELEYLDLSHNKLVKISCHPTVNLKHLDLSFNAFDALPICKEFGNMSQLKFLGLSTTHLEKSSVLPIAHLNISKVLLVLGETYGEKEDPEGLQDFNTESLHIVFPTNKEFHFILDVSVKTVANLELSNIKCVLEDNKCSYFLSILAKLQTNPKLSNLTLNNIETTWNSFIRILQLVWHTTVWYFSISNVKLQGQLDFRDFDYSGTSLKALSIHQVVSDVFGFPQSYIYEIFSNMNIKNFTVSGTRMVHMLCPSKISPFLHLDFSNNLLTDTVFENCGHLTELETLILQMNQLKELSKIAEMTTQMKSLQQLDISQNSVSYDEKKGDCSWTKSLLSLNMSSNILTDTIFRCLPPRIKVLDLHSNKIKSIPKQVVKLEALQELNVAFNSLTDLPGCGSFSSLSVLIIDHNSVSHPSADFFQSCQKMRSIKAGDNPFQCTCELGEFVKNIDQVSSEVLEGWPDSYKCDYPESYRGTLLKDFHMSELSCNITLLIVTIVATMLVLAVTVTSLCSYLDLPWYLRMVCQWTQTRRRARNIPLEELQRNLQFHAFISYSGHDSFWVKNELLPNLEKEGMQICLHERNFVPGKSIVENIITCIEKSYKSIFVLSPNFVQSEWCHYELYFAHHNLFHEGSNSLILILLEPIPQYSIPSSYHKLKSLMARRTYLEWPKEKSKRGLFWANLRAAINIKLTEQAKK
SMILES,EC50 [1] [nM],EC50 [2] [nM]
O=C(N[C@H]1C[C@@H]1c1ccccc1)[C@@H]1CN(C(=O)c2ccc(-c3ccc(C(=O)N4C[C@@H](C(=O)N[C@H]5C[C@@H]5c5ccccc5)[C@H](C(=O)N[C@H]5C[C@@H]5c5ccccc5)C4)cc3)cc2)C[C@H]1C(=O)N[C@H]1C[C@@H]1c1ccccc1,90,2300
CCCCCCCCNC(=O)[C@@H]1CN(C(=O)c2ccc(C(=O)N3C[C@@H](C(=O)N[C@H]4C[C@@H]4c4ccccc4)[C@H](C(=O)N[C@@H]4C[C@H]4c4ccccc4)C3)cc2)C[C@H]1C(=O)N[C@H]1C[C@@H]1c1ccccc1,0.33,540
CCCCCCCCCCCCCCCCNC(=O)[C@@H]1CN(C(=O)c2ccc(C(=O)N3C[C@@H](C(=O)N[C@H]4C[C@@H]4c4ccccc4)[C@H](C(=O)N[C@@H]4C[C@H]4c4ccccc4)C3)cc2)C[C@H]1C(=O)NCCCCCCCCCCCCCCCC,2.5,1000
O=C(N[C@H]1C[C@@H]1c1ccc(Br)cc1)[C@@H]1CN(C(=O)c2ccc(C(=O)N3C[C@@H](C(=O)N[C@H]4C[C@@H]4c4ccc(Br)cc4)[C@H](C(=O)N[C@@H]4C[C@H]4c4ccc(Br)cc4)C3)cc2)C[C@H]1C(=O)N[C@H]1C[C@@H]1c1ccc(Br)cc1,1600,> 5000
CCCCCCCCCCNC(=O)[C@@H]1CN(C(=O)c2ccc(C(=O)N3C[C@@H](C(=O)NCCCCCCCCCC)[C@H](C(=O)N[C@@H]4C[C@H]4c4ccccc4)C3)cc2)C[C@H]1C(=O)N[C@@H]1C[C@H]1c1ccccc1,35,1100
O=C(NCCc1ccc(F)cc1)[C@@H]1CN(C(=O)/C=C/C(=O)N2C[C@@H](C(=O)NCCc3ccc(F)cc3)[C@H](C(=O)NCCc3ccc(F)cc3)C2)C[C@H]1C(=O)NCCc1ccc(F)cc1,> 5000,> 5000
O=C(NCCc1ccc(O)cc1)[C@@H]1CN(C(=O)c2ccc(C(=O)N3C[C@@H](C(=O)NCCc4ccc(O)cc4)[C@H](C(=O)NCCc4ccc(O)cc4)C3)cc2)C[C@H]1C(=O)NCCc1ccc(O)cc1 (racemic),> 5000,
COc1ccc([C@H]2C[C@@H]2NC(=O)[C@@H]2CN(C(=O)c3ccc(C(=O)N4C[C@@H](C(=O)N[C@H]5C[C@@H]5c5ccc(OC)cc5)[C@H](C(=O)N[C@@H]5C[C@H]5c5ccc(OC)cc5)C4)cc3)C[C@H]2C(=O)N[C@H]2C[C@@H]2c2ccc(OC)cc2)cc1,> 5000,> 5000
N#Cc1ccc([C@H]2C[C@@H]2NC(=O)[C@@H]2CN(C(=O)c3ccc(C(=O)N4C[C@@H](C(=O)N[C@H]5C[C@@H]5c5ccc(C#N)cc5)[C@H](C(=O)N[C@@H]5C[C@H]5c5ccc(C#N)cc5)C4)cc3)C[C@H]2C(=O)N[C@H]2C[C@@H]2c2ccc(C#N)cc2)cc1,> 5000,> 5000
O=C(N[C@H]1C[C@@H]1c1ccc(Cl)cc1)[C@@H]1CN(C(=O)c2ccc(C(=O)N3C[C@@H](C(=O)N[C@H]4C[C@@H]4c4ccc(Cl)cc4)[C@H](C(=O)N[C@@H]4C[C@H]4c4ccc(Cl)cc4)C3)cc2)C[C@H]1C(=O)N[C@H]1C[C@@H]1c1ccc(Cl)cc1,40,5000
O=C(NCCc1ccc(F)cc1)[C@@H]1CN(C(=O)c2ccc(C(=O)N3C[C@@H](C(=O)NCCc4ccc(F)cc4)[C@H](C(=O)NCCc4ccc(F)cc4)C3)cc2)C[C@H]1C(=O)NCCc1ccc(F)cc1,50,> 5000
CCCCCCCCCCNC(=O)[C@@H]1CN(C(=O)c2ccc(C(=O)N3C[C@@H](C(=O)NCCCCCCCCCC)[C@H](C(=O)NCCCCCCCCCC)C3)cc2)C[C@H]1C(=O)NCCCCCCCCCC,,> 5
O=C(NCCc1ccc(Br)cc1)[C@@H]1CN(C(=O)c2ccc(C(=O)N3C[C@@H](C(=O)NCCc4ccc(Br)cc4)[C@H](C(=O)NCCc4ccc(Br)cc4)C3)cc2)C[C@H]1C(=O)NCCc1ccc(Br)cc1 (racemic),> 5000,
CCCCNC(=O)[C@@H]1CN(C(=O)c2ccc(C(=O)N3C[C@@H](C(=O)N[C@H]4C[C@@H]4c4ccccc4)[C@H](C(=O)N[C@@H]4C[C@H]4c4ccccc4)C3)cc2)C[C@H]1C(=O)NCCCC,0.28,60
CCCCCCNC(=O)[C@@H]1CN(C(=O)c2ccc(C(=O)N3C[C@@H](C(=O)NCCCCCC)[C@H](C(=O)NCCCCCC)C3)cc2)C[C@H]1C(=O)NCCCCCC,,> 5
Cc1ccc(CCNC(=O)[C@@H]2CN(C(=O)c3ccc(C(=O)N4C[C@@H](C(=O)NCCc5ccc(C)cc5)[C@H](C(=O)NCCc5ccc(C)cc5)C4)cc3)C[C@H]2C(=O)NCCc2ccc(C)cc2)cc1 (racemic),> 5000,
O=C(NCCc1ccc(-c2ccccc2)cc1)[C@@H]1CN(C(=O)c2ccc(C(=O)N3C[C@@H](C(=O)NCCc4ccc(-c5ccccc5)cc4)[C@H](C(=O)NCCc4ccc(-c5ccccc5)cc4)C3)cc2)C[C@H]1C(=O)NCCc1ccc(-c2ccccc2)cc1 (racemic),> 5000,
Nc1ccc(CCNC(=O)[C@@H]2CN(C(=O)c3ccc(C(=O)N4C[C@@H](C(=O)NCCc5ccc(N)cc5)[C@H](C(=O)NCCc5ccc(N)cc5)C4)cc3)C[C@H]2C(=O)NCCc2ccc(N)cc2)cc1 (racemic),> 5000,
CCCCCCCCNC(=O)[C@@H]1CN(C(=O)c2ccc(C(=O)N3C[C@@H](C(=O)NCCCCCCCC)[C@H](C(=O)NCCCCCCCC)C3)cc2)C[C@H]1C(=O)NCCCCCCCC,,> 5
N#Cc1ccc(CCNC(=O)[C@@H]2CN(C(=O)c3ccc(C(=O)N4C[C@@H](C(=O)NCCc5ccc(C#N)cc5)[C@H](C(=O)NCCc5ccc(C#N)cc5)C4)cc3)C[C@H]2C(=O)NCCc2ccc(C#N)cc2)cc1 (racemic),> 5000,
COc1ccc(CCNC(=O)[C@@H]2CN(C(=O)c3ccc(C(=O)N4C[C@@H](C(=O)NCCc5ccc(OC)cc5)[C@H](C(=O)NCCc5ccc(OC)cc5)C4)cc3)C[C@H]2C(=O)NCCc2ccc(OC)cc2)cc1 (racemic),> 5000,
COC(=O)c1ccc(CCNC(=O)[C@@H]2CN(C(=O)c3ccc(C(=O)N4C[C@@H](C(=O)NCCc5ccc(C(=O)OC)cc5)[C@H](C(=O)NCCc5ccc(C(=O)OC)cc5)C4)cc3)C[C@H]2C(=O)NCCc2ccc(C(=O)OC)cc2)cc1 (racemic),> 5000,
O=C(NCCc1ccccc1)[C@@H]1CN(C(=O)c2ccc(C(=O)N3C[C@@H](C(=O)NCCc4ccc5ccccc5c4)[C@H](C(=O)NCCc4ccc5ccccc5c4)C3)cc2)C[C@H]1C(=O)NCCc1ccc2ccccc2c1 (racemic),> 5000,
CCCCCCCCCCCCCCCCNC(=O)[C@@H]1CN(C(=O)c2ccc(C(=O)N3C[C@@H](C(=O)NCCCCCCCCCCCCCCCC)[C@H](C(=O)NCCCCCCCCCCCCCCCC)C3)cc2)C[C@H]1C(=O)NCCCCCCCCCCCCCCCC,,> 5
O=C(NCCc1ccccc1F)[C@@H]1CN(C(=O)c2ccc(C(=O)N3C[C@@H](C(=O)NCCc4ccccc4F)[C@H](C(=O)NCCc4ccccc4F)C3)cc2)C[C@H]1C(=O)NCCc1ccccc1F (racemic),> 5000,
O=C(NCCc1ccc(C(F)(F)F)cc1)[C@@H]1CN(C(=O)c2ccc(C(=O)N3C[C@@H](C(=O)NCCc4ccc(C(F)(F)F)cc4)[C@H](C(=O)NCCc4ccc(C(F)(F)F)cc4)C3)cc2)C[C@H]1C(=O)NCCc1ccc(C(F)(F)F)cc1 (racemic),> 5000,
O=C(NCCc1ccc([N+](=O)[O-])cc1)[C@@H]1CN(C(=O)c2ccc(C(=O)N3C[C@@H](C(=O)NCCc4ccc([N+](=O)[O-])cc4)[C@H](C(=O)NCCc4ccc([N+](=O)[O-])cc4)C3)cc2)C[C@H]1C(=O)NCCc1ccc([N+](=O)[O-])cc1 (racemic),> 5000,
O=C(NCCc1ccc(Cl)cc1)[C@@H]1CN(C(=O)c2ccc(C(=O)N3C[C@@H](C(=O)NCCc4ccc(Cl)cc4)[C@H](C(=O)NCCc4ccc(Cl)cc4)C3)cc2)C[C@H]1C(=O)NCCc1ccc(Cl)cc1 (racemic),> 5000,
